Source: patent US20190209501A1, “COMPOSITIONS AND METHODS OF USE OF BETA-HYDROXY-BETA-METHYLBUTYRATE (HMB) […] IN[…]” (Texas Tech University Office of Research Commercialization, priority 2018, published 2019)

Experiment: Isometric squat rate of force development (RFD)
Assay type: in vivo, human
Design: RFD50 ms / RFD50 ms Δ / RFD100 ms / RFD100 ms Δ / RFD200 ms / RFD200 ms Δ / RFD30 ms / RFD30 ms Δ: unit not given here
Settings: for RFD30 ms Δ / RFD30 ms Δ (%) / RFD50 ms Δ / RFD50 ms Δ (%) / RFD100 ms Δ / RFD100 ms Δ (%) / RFD200 ms Δ / RFD200 ms Δ (%): baseline to W 8; for RFD30 ms ES (d) / RFD50 ms ES (d) / RFD100 ms ES (d) / RFD200 ms ES (d): effect size
Procedure: Isometric and isokinetic squats were performed using a mechanized squat device (Exerbotics eSq, Tulsa, Okla., USA) (31, 32). At the first assessment, each participant's preferred foot positioning was determined using a custom grid overlaid on the foot platform of the squat device. This foot positioning was recorded and utilized for all visits. No weight belts, knee wraps, or other aids were utilized during testing. Prior to testing, the participant's range of motion for isokinetic testing was determined. The range of motion was set to 90° between the thigh and lower leg at the bottom of the repetition and approximately 170° at the top of the repetition, as determined by a goniometer. The isometric testing included maximal effort pushes at 120° and 150° knee angles. Each participant was instructed to push against the device as hard and fast as possible while attempting to complete a squat movement. Two isometric pushes were performed at each knee angle, and each effort lasted approximately 2 to 3 seconds. After the isometric testing, a 3-repetition maximum isokinetic force production test was completed. Prior to testing, participants observed the movement of the machine and received verbal instruction regarding proper performance of the assessment. Each of the repetitions during the maximal isokinetic force production test consisted of a 4-second eccentric phase, followed by an approximately half-second pause at the 90° knee position and a 4-second concentric phase. During testing, the force signal was sampled from the load cell at 1 kHz (MP100; Biopac Systems, Inc, Santa Barbara, Calif., USA), stored on a personal computer, and processed off-line using custom-written software (LabVIEW, Version 11.0; National Instruments, Austin, Tex., USA). The scaled force signal was low-pass filtered, with a 10-Hz cutoff (zero-phase lag, fourth-order Butterworth filter). All subsequent analyses were conducted on the scaled and filtered force signal. For the isometric force production tests, the rate of force development (RFD) over specific time intervals (i.e. 30, 50, 100 and 200 ms) was calculated by manually specifying the onset of force production within the custom LabVIEW program. For each repetition of the maximum isokinetic force production test, isokinetic peak forces (PF) were determined as the highest mean 25-ms epoch for both concentric and eccentric testing (i.e. PFCONC and PFECC).

CC(C)(O)CC(=O)O [TRFHMB, β-hydroxy-β-methylbutyrate]
RFD30 ms (ITT, knee angle 120°, Baseline): 1638 ± 411
RFD50 ms (ITT, knee angle 120°, Baseline): 2017 ± 472
RFD100 ms (ITT, knee angle 120°, Baseline): 2621 ± 719
RFD200 ms (ITT, knee angle 120°, Baseline): 3661 ± 503
RFD30 ms (ITT, knee angle 120°, W 4): 2131 ± 457
RFD50 ms (ITT, knee angle 120°, W 4): 2760 ± 506
RFD100 ms (ITT, knee angle 120°, W 4): 3451 ± 759
RFD200 ms (ITT, knee angle 120°, W 4): 4121 ± 475
RFD30 ms (ITT, knee angle 120°, W 8): 2606 ± 494
RFD50 ms (ITT, knee angle 120°, W 8): 3153 ± 510
RFD100 ms (ITT, knee angle 120°, W 8): 4205 ± 774
RFD200 ms (ITT, knee angle 120°, W 8): 4332 ± 472
RFD30 ms Δ (ITT, knee angle 120°): 969
RFD30 ms Δ (%) (ITT, knee angle 120°): 59%
RFD50 ms Δ (ITT, knee angle 120°): 1135
RFD50 ms Δ (%) (ITT, knee angle 120°): 56%
RFD100 ms Δ (ITT, knee angle 120°): 1585
RFD100 ms Δ (%) (ITT, knee angle 120°): 60%
RFD200 ms Δ (ITT, knee angle 120°): 671
RFD200 ms Δ (%) (ITT, knee angle 120°): 18%
RFD30 ms ES (d) (ITT, knee angle 120°): 0.59
RFD50 ms ES (d) (ITT, knee angle 120°): 0.64
RFD100 ms ES (d) (ITT, knee angle 120°): 0.59
RFD200 ms ES (d) (ITT, knee angle 120°): 0.38
RFD30 ms (ITT, knee angle 150°, Baseline): 1922 ± 471
RFD50 ms (ITT, knee angle 150°, Baseline): 2203 ± 703
RFD100 ms (ITT, knee angle 150°, Baseline): 2694 ± 825
RFD200 ms (ITT, knee angle 150°, Baseline): 3163 ± 491
RFD30 ms (ITT, knee angle 150°, W 4): 2612 ± 420
RFD50 ms (ITT, knee angle 150°, W 4): 2989 ± 482
RFD100 ms (ITT, knee angle 150°, W 4): 3567 ± 750
RFD200 ms (ITT, knee angle 150°, W 4): 3511 ± 447
RFD30 ms (ITT, knee angle 150°, W 8): 2851 ± 469
RFD50 ms (ITT, knee angle 150°, W 8): 3208 ± 468
RFD100 ms (ITT, knee angle 150°, W 8): 3944 ± 754
RFD200 ms (ITT, knee angle 150°, W 8): 3876 ± 443
RFD30 ms Δ (ITT, knee angle 150°): 929
RFD30 ms Δ (%) (ITT, knee angle 150°): 48%
RFD50 ms Δ (ITT, knee angle 150°): 1004
RFD50 ms Δ (%) (ITT, knee angle 150°): 46%
RFD100 ms Δ (ITT, knee angle 150°): 1251
RFD100 ms Δ (%) (ITT, knee angle 150°): 46%
RFD200 ms Δ (ITT, knee angle 150°): 713
RFD200 ms Δ (%) (ITT, knee angle 150°): 23%
RFD30 ms ES (d) (ITT, knee angle 150°): 0.53
RFD50 ms ES (d) (ITT, knee angle 150°): 0.45
RFD100 ms ES (d) (ITT, knee angle 150°): 0.42
RFD200 ms ES (d) (ITT, knee angle 150°): 0.41
RFD30 ms (PP, knee angle 120°, Baseline): 1669 ± 662
RFD50 ms (PP, knee angle 120°, Baseline): 2016 ± 758
RFD100 ms (PP, knee angle 120°, Baseline): 2642 ± 1153
RFD200 ms (PP, knee angle 120°, Baseline): 4079 ± 688
RFD30 ms (PP, knee angle 120°, W 4): 2267 ± 723
RFD50 ms (PP, knee angle 120°, W 4): 3028 ± 787
RFD100 ms (PP, knee angle 120°, W 4): 3845 ± 1195
RFD200 ms (PP, knee angle 120°, W 4): 4636 ± 648
RFD30 ms (PP, knee angle 120°, W 8): 2917 ± 675
RFD50 ms (PP, knee angle 120°, W 8): 3470 ± 675
RFD100 ms (PP, knee angle 120°, W 8): 4629 ± 1111
RFD200 ms (PP, knee angle 120°, W 8): 4824 ± 569
RFD30 ms Δ (PP, knee angle 120°): 1248
RFD30 ms Δ (%) (PP, knee angle 120°): 75%
RFD50 ms Δ (PP, knee angle 120°): 1454
RFD50 ms Δ (%) (PP, knee angle 120°): 72%
RFD100 ms Δ (PP, knee angle 120°): 1987
RFD100 ms Δ (%) (PP, knee angle 120°): 75%
RFD200 ms Δ (PP, knee angle 120°): 745
RFD200 ms Δ (%) (PP, knee angle 120°): 18%
RFD30 ms ES (d) (PP, knee angle 120°): 0.71
RFD50 ms ES (d) (PP, knee angle 120°): 0.77
RFD100 ms ES (d) (PP, knee angle 120°): 0.66
RFD200 ms ES (d) (PP, knee angle 120°): 0.45
RFD30 ms (PP, knee angle 150°, Baseline): 2121 ± 770
RFD50 ms (PP, knee angle 150°, Baseline): 2420 ± 1187
RFD100 ms (PP, knee angle 150°, Baseline): 3072 ± 1377
RFD200 ms (PP, knee angle 150°, Baseline): 3441 ± 708
RFD30 ms (PP, knee angle 150°, W 4): 2845 ± 625
RFD50 ms (PP, knee angle 150°, W 4): 3274 ± 715
RFD100 ms (PP, knee angle 150°, W 4): 3940 ± 1178
RFD200 ms (PP, knee angle 150°, W 4): 3613 ± 634
RFD30 ms (PP, knee angle 150°, W 8): 3177 ± 622
RFD50 ms (PP, knee angle 150°, W 8): 3572 ± 604
RFD100 ms (PP, knee angle 150°, W 8): 4346 ± 1070
RFD200 ms (PP, knee angle 150°, W 8): 4237 ± 558
RFD30 ms Δ (PP, knee angle 150°): 1056
RFD30 ms Δ (%) (PP, knee angle 150°): 50%
RFD50 ms Δ (PP, knee angle 150°): 1152
RFD50 ms Δ (%) (PP, knee angle 150°): 48%
RFD100 ms Δ (PP, knee angle 150°): 1274
RFD100 ms Δ (%) (PP, knee angle 150°): 41%
RFD200 ms Δ (PP, knee angle 150°): 796
RFD200 ms Δ (%) (PP, knee angle 150°): 23%
RFD30 ms ES (d) (PP, knee angle 150°): 0.57
RFD50 ms ES (d) (PP, knee angle 150°): 0.46
RFD100 ms ES (d) (PP, knee angle 150°): 0.39
RFD200 ms ES (d) (PP, knee angle 150°): 0.47
